The source of these data is ChEMBL document CHEMBL4184300, “Design and characterization of bivalent compounds as potential neuroprotectants for Alzheimer's disease: Impact of the spacer on biological activity” (Bioorg Med Chem Lett, 2018).

The structures appear in SMILES notation. Active and inactive are the calls of the source. The calls are words filed in the database; no cut-off is given here.

Assay [1] is filed under the species Homo sapiens. In words: Neuroprotective activity against tetracycline removal-induced cytotoxicity in human MC65 cells assessed as reduction in oxidative stress at 8 mM after 48 hrs by DCFH-DA dye based fluorescence assay. It counts as functional, cell-based.
Assay [2] in a line: Metal chelating activity assessed as Fe2+-compound complex formation at 50 uM after 10 mins by UV-Vis spectroscopic method.
A short description of assay [3]: Metal chelating activity assessed as Cu2+-compound complex formation at 50 uM after 10 mins by UV-Vis spectroscopic method.
For assay [4], the species on record is Homo sapiens. The experiment in a line: Neuroprotective activity against tetracycline removal-induced cytotoxicity in human MC65 cells assessed as reduction in oxidative stress at 0.3 uM after 48 hrs by DCFH-DA dye based fluorescence assay. It counts as functional, cell-based.
Assay [5] is described as follows: Neuroprotective activity against tetracycline removal-induced cytotoxicity in human MC65 cells assessed as increase in cell viability after 72 hrs by MTT assay. It counts as functional, cell-based. The note with it: MC65, 72 h.
Assay [6] can be described thus: Metal chelating activity assessed as Zn2+-compound complex formation at 50 uM after 10 mins by UV-Vis spectroscopic method.
Assay [7] is filed under the species Homo sapiens. The experiment in a line: Neuroprotective activity against tetracycline removal-induced cytotoxicity in human MC65 cells assessed as reduction in oxidative stress at 32 uM after 48 hrs by DCFH-DA dye based fluorescence assay. It counts as functional, cell-based.
In assay [8] the test system is N2a. The experiment in a line: Neuroprotective activity in mouse N2A cells assessed as induction of neurite outgrowth at 0.3 uM after 48 hrs by fluorescence microscopic analysis. It counts as functional, cell-based.

Turning to `CC(=O)N[C@@H](CS)C(=O)O`, in assay [1], the result was inactive.
Take `COc1cc(/C=C/C(=O)C(Cc2cn(CCCCC(=O)NCCCN3CCN(CCCNC(=O)CCC(=O)NCCCN4CCN(CCCNCCN[C@H]5CC[C@@]6(C)C(=CC[C@H]7[C@@H]8CC[C@H]([C@H](C)CCCC(C)C)[C@@]8(C)CC[C@@H]76)C5)CC4)CC3)nn2)C(=O)/C=C/c2ccc(O)c(OC)c2)ccc1O`: the result in assay [2], in assay [3] and in assay [6] was inactive. Moreover, in assay [4], the outcome was Active. In assay [5], the EC50 came to 94 nM.
Consider `COc1cc(/C=C/C(=O)C(Cc2cn(CCCCNC(=O)CCC(=O)NCCCN3CCN(CCCNCCN[C@H]4CC[C@@]5(C)C(=CC[C@H]6[C@@H]7CC[C@H]([C@H](C)CCCC(C)C)[C@@]7(C)CC[C@@H]65)C4)CC3)nn2)C(=O)/C=C/c2ccc(O)c(OC)c2)ccc1O`, for which the outcome in assay [2], in assay [3] and in assay [6] was inactive. For the same molecule, the result in assay [4] was Active. Besides, the EC50 in assay [5] stood at 40.6 nM.
For the molecule `COc1cc(/C=C/C(=O)C(Cc2cn(CCC(=O)NCCCN3CCN(CCCNC(=O)CCC(=O)NCCCN4CCN(CCCNCCN[C@H]5CC[C@@]6(C)C(=CC[C@H]7[C@@H]8CC[C@H]([C@H](C)CCCC(C)C)[C@@]8(C)CC[C@@H]76)C5)CC4)CC3)nn2)C(=O)/C=C/c2ccc(O)c(OC)c2)ccc1O`, the outcome in assay [2], in assay [3] and in assay [6] was inactive. In addition, the result in assay [4] was Active. In addition, the EC50 in assay [5] was 33.9 nM.
With `COc1cc(/C=C/C(=O)C(Cc2cn(CCC(=O)NCCCN3CCN(CCCNC(=O)CCN4CCN(CCCN[C@H]5CC[C@@]6(C)C(=CC[C@H]7[C@@H]8CC[C@H]([C@H](C)CCCC(C)C)[C@@]8(C)CC[C@@H]76)C5)CC4)CC3)nn2)C(=O)/C=C/c2ccc(O)c(OC)c2)ccc1O`, the outcome in assay [2], in assay [3] and in assay [6] was inactive. The outcome in assay [4] was Active. Moreover, in assay [5], the EC50 was determined as 33.7 nM.
For `COc1cc(/C=C/C(=O)C(Cc2cn(CCNC(=O)CCC(=O)NCCCN3CCN(CCCNCCN[C@H]4CC[C@@]5(C)C(=CC[C@H]6[C@@H]7CC[C@H]([C@H](C)CCCC(C)C)[C@@]7(C)CC[C@@H]65)C4)CC3)nn2)C(=O)/C=C/c2ccc(O)c(OC)c2)ccc1O`, the outcome in assay [2], in assay [3] and in assay [6] was inactive. Moreover, in assay [4], the result was Active. In addition, the EC50 in assay [5] came out at 34.2 nM.
`COc1cc(/C=C/C(=O)C(Cc2cn(CCCCNC(=O)CCC(=O)NCCCN3CCN(CCCNC(=O)CCN4CCN(CCCN[C@H]5CC[C@@]6(C)C(=CC[C@H]7[C@@H]8CC[C@H]([C@H](C)CCCC(C)C)[C@@]8(C)CC[C@@H]76)C5)CC4)CC3)nn2)C(=O)/C=C/c2ccc(O)c(OC)c2)ccc1O`: the result in assay [2], in assay [3] and in assay [6] was inactive. The outcome in assay [4] was Active. Besides, in assay [5], the EC50 was 30.9 nM.
`COc1cc(/C=C/C(=O)C(Cc2cn(CCCCC(=O)NCCCN3CCN(CCCNCCN[C@H]4CC[C@@]5(C)C(=CC[C@H]6[C@@H]7CC[C@H]([C@H](C)CCCC(C)C)[C@@]7(C)CC[C@@H]65)C4)CC3)nn2)C(=O)/C=C/c2ccc(O)c(OC)c2)ccc1O`: the result in assay [2], in assay [3] and in assay [6] was inactive. For the same molecule, the result in assay [4] was Active. Further, the EC50 in assay [5] was 21.5 nM.
Regarding `COc1cc(/C=C/C(=O)C(Cc2cn(CCCCC(=O)NCCCN3CCN(CCCNC(=O)CCN4CCN(CCCN[C@H]5CC[C@@]6(C)C(=CC[C@H]7[C@@H]8CC[C@H]([C@H](C)CCCC(C)C)[C@@]8(C)CC[C@@H]76)C5)CC4)CC3)nn2)C(=O)/C=C/c2ccc(O)c(OC)c2)ccc1O`, the outcome in assay [2], in assay [3] and in assay [6] was inactive. Moreover, in assay [4], the outcome was Active. For the same molecule, the EC50 in assay [5] was 64.3 nM.
Regarding `Cc1c(C)c2c(c(C)c1O)CCC(C)(C(=O)O)O2` (stereo not drawn), in assay [7], the outcome was Active.
Take `COc1cc(/C=C/C(=O)C(Cc2cn(CCC(=O)NCCCN3CCN(CCCNCCN[C@H]4CC[C@@]5(C)C(=CC[C@H]6[C@@H]7CC[C@H]([C@H](C)CCCC(C)C)[C@@]7(C)CC[C@@H]65)C4)CC3)nn2)C(=O)/C=C/c2ccc(O)c(OC)c2)ccc1O`: the result in assay [2], in assay [3], in assay [6] and in assay [8] was inactive. In assay [4], the outcome was Active. Moreover, in assay [5], the EC50 was 23.9 nM.
Turning to `COc1cc(/C=C/C(=O)C(Cc2cn(CCNC(=O)CCC(=O)NCCCN3CCN(CCCNC(=O)CCN4CCN(CCCN[C@H]5CC[C@@]6(C)C(=CC[C@H]7[C@@H]8CC[C@H]([C@H](C)CCCC(C)C)[C@@]8(C)CC[C@@H]76)C5)CC4)CC3)nn2)C(=O)/C=C/c2ccc(O)c(OC)c2)ccc1O`, the outcome in assay [2], in assay [3] and in assay [6] was inactive. In addition, the outcome in assay [4] was Active. Moreover, in assay [5], the EC50 was found to be 31.6 nM.
